Data from patent publication US12637469B2, “1H-pyrazole derivative and application thereof as dual target inhibitor of Syk and VEGFR2” (Ocumension Therapeutics (Suzhou) Co., Ltd., priority 2020, dated 2026).

Key:
[1] = molecular target: T1, Syk kinase (Homo sapiens, UniProt P43405); experiment: In vitro inhibitory effect on Syk kinase (HTRF enzymatic experiment); assay type: biochemical; conditions: ATP 2 μM, read-out: IC50 (nM) for inhibition of Syk enzyme
T1 construct: purchased Invitrogen PV3857
Excerpt: The interaction between the substrate and the enzyme was detected by HTRF, using the IC50 value of the compound as an indicator to evaluate the inhibitory effect of the compound on Syk kinase.
• Syk kinase (Invitrogen, PV3857) • DTT (Sigma #43815) • ATP (Sigma #A7699) • MgCl2 (Sigma #63020) • MnCl2 (Sigma #M1787) • EDTA (Invitrogen #15575-020) • HEPES Buffer (Invitrogen #15630-080) • HTRF® KinEASE™ TK (Cisbio #62TKOPEC, 20000 tests) • Low volume, 384-well, white polystyrene plate (Greiner #784075) • 384 Well Microplates (Greiner #781946) • Centrifuge (Eppendorf #5810R) • Pipette (Eppendorf) • Pipette (Greiner) • Pipette gun (Eppendorf) • Mutidorp Pipette • POD 810 Plate Assembler Automatic Microplate Pretreatment System • Envision Reader • Experimental Steps and Methods: • a) Compound dilution and plate-making: • 1) The compound powder was weighed, dissolved in a certain amount of DMSO at an initial concentration of 10 mM. • 2) The compound was diluted to a concentration of 0.74 mM, and plated with POD18, 135 nL per well, the starting compound concentration was 10 μM, and there were 11 concentration points, with 3-fold descending serial dilutions. • b) Enzyme-substrate reaction stage: • 1) Preparation and dilution of the experimental buffer: the 5×HTRF Buffer in the kit was diluted to 1×, and specified amounts of DTT and MgCl2 solutions were added for use. • 2) SYK enzyme reaction solution was prepared with 1×HTRF Buffer so that the final reaction concentration of SYK kinase was 0.0156 ng/μL. • 3) TK-Substrate-biotin/ATP mixture was prepared so that the final substrate concentration was controlled at 0.2 μM. ATP concentration was controlled at 2 μM. • 4) The solution and the mixture were added with a Mutidorp pipette, SYK enzyme solution and TK-Substrate-biotin/ATP mixture were each added 5 μL per well, and incubated with 23 solution for 1 hour. • c) Detection stage: • 1) 13.33 mL of ethylenediaminetetraacetic acid solution was added to the detection buffer of the kit, and specified amounts of Eu-labeled antibody and XL-665 were added to prepare the detection solution. • 2) The solution was added with a Mutidorp pipette, 10 μL of detection solution per well, and incubated with 23 solution for 1 hour. The reaction of the enzyme and substrate mixture was stopped. • 3) After centrifugation, the reading was obtained on Envision. • d) Data analyzation: the data was analyzed using XL-Fit and the IC50 value of the compound was calculated.

[2] = molecular target: VEGFR2 kinase (KDR enzyme) (Homo sapiens, UniProt P35968); experiment: In vitro inhibitory effect on VEGFR2 kinase (ADP-Glo enzymatic experiment); assay type: biochemical; conditions: read-out: IC50 (nM) for inhibition of VEFGR2 enzyme
Description: The VEGFR2 kinase assay kit is intended for measuring VEGFR2 kinase activity using Kinase-Glo®MAX as a detection reagent, and compound screening and analysis were conducted using the IC50 value of the compound as an indicator.
The ADP-GLO™ Kinase Assay is an analytical reaction in which a luminescent kinase is used to determine the adenosine diphosphate formed by the kinase; ADP is converted to ATP, i.e., an optical signal is generated by Ultra-Glo™ luciferase. The optical signal is positively correlated with ADP quantity and kinase activity. This assay is ideal for determining the activity of the compound, making it ideal for primary screening and kinase selectivity analysis. The ADP-Glo™ Kinase Assay can be used to monitor the activity of virtually any ADP-producing enzyme such as a kinase orATPase: • 1) The enzyme, substrate, ATP and inhibitor were diluted in a kinase buffer; • 2) 384-well plate: 1 μL of inhibitor or (5% dimethyl sulfoxide solution), 2 μL of KDR enzyme, 2 μL of matrix/ATP mixture; • 3) the mixture was incubated at room temperature for 60 minutes; • 4) 5 μL of ADP-GLO™ reagent was added; • 5) the mixture was incubated for 40 minutes at room temperature; • 6) 10 μL of kinase detection reagent was added; • 7) the mixture was incubated at room temperature for 30 minutes; • 8) the luminescence was recorded (integration time 0.5-1 sec). The data was shown in relative light units (rlu), which was directly related to the amount of […]. There was correlation between the percent of the conversion from ATP to ADP for each kinase amount and the corresponding signal-to-background ratio. • 9) Data analysis: (a) KDR enzyme was titrated with 50 μM of ATP, and the luminescent signal produced by KDR enzyme was shown; (b) staurosporine dose response was generated with 1.5 ng of KDR to determine the IC50 value of the inhibitor.

VEGFR2 kinase (KDR enzyme), sequence (P35968 20-1356, species assumed): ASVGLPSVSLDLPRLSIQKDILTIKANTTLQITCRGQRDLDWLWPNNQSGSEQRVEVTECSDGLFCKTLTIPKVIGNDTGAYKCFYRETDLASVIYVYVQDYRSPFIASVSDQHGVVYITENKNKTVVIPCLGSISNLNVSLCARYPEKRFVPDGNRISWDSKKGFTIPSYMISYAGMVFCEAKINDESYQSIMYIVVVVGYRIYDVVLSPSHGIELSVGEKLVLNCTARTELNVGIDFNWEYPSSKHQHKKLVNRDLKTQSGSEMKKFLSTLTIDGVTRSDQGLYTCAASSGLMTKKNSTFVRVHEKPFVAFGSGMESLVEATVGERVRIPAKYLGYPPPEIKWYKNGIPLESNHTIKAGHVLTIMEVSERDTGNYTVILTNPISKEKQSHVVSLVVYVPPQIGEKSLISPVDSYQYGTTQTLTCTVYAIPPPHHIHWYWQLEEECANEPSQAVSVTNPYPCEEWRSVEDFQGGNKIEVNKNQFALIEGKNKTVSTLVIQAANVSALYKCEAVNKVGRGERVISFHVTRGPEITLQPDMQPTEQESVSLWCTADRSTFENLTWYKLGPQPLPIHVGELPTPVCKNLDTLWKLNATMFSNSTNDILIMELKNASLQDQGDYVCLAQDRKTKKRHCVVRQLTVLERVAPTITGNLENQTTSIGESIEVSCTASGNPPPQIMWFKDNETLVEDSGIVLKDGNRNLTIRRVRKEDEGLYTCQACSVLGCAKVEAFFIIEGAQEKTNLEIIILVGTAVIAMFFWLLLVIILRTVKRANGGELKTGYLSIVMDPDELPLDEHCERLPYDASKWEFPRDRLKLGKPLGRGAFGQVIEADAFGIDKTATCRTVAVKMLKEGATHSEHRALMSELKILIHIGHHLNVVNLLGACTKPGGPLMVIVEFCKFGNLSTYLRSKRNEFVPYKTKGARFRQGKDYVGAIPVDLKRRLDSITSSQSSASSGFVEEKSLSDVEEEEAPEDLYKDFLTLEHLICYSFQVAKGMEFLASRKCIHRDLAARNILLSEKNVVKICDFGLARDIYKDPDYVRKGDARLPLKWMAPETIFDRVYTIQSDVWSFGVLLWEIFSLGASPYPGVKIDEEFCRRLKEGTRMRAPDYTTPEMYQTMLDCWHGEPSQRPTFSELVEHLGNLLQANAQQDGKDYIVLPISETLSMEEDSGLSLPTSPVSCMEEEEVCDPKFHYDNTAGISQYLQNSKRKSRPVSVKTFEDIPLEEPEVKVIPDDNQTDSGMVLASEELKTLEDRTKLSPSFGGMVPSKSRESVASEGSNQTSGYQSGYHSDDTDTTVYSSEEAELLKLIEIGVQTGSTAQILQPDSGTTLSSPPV

| IC50 [1] | IC50 [2] | SMILES |
| --- | --- | --- |
| 125 nM | 31 nM | c1cn2c(n1)c(Nc1ccc(N3CCOCC3)cc1)nc1ccc(-c3cc[nH]n3)cc12 [Compound 2] |
| 17 nM | 19 nM | c1cn2c(n1)c(Nc1ccc(N3CCN(C4COC4)CC3)cc1)nc1ccc(-c3cn[nH]c3)cc12 [Compound 5] |
| 50 nM | 44 nM | CN1CCN(c2ccc(Nc3nc4ccc(-c5cn[nH]c5)cc4n4ccnc34)cc2)CC1 [Compound 6] |
| 34 nM | 42 nM | CN1CCCN(c2ccc(Nc3nc4ccc(-c5cn[nH]c5)cc4n4ccnc34)cc2)CC1 [Compound 7] |
| 30 nM | 31 nM | CC1(O)CCN(c2ccc(Nc3nc4ccc(-c5cn[nH]c5)cc4n4ccnc34)cc2)CC1 [Compound 8] |
| 23 nM | 22 nM | N=S1(=O)CCN(c2ccc(Nc3nc4ccc(-c5cn[nH]c5)cc4n4ccnc34)cc2)CC1 [Compound 9] |
| 11 nM | 41 nM | CC(=O)N=S1(=O)CCN(c2ccc(Nc3nc4ccc(-c5cn[nH]c5)cc4n4ccnc34)cc2)CC1 [Compound 10] |
| 34 nM | 56 nM | c1cn2c(n1)c(Nc1ccc(C3CCOCC3)cc1)nc1ccc(-c3cn[nH]c3)cc12 [Compound 11] |
| 315 nM | 88 nM | c1cn2c(n1)c(Nc1ccc(N3CCC4(CC3)COC4)cc1)nc1ccc(-c3cn[nH]c3)cc12 [Compound 12] |
